Results as given in patent publication US12396977B2, “Composition for treating degenerative brain diseases, containing 2-pentylfuran as active ingredient” (DAEGU GYEONGBUK INSTITUTE OF SCIENCE AND TECHNOLOGY, priority 2019, dated 2025).

Experiments:
Olfr111 = assay: Luciferase assay in Hana3A cells, Olfr111; assay type: cell-based, mouse; conditions: for reactivity of Olfr111 (relative luciferase activity): Hana3A cells
Protocol: (§1) Next, Hana3A cells were transfected with RTP1S, and their location and presence on the cell membrane were confirmed as previously described (Behrens et al., 2009; Zhuang and Matsunami, 2008). Such transfection was performed using Lipofectamine 2000 (#11668-019; Thermo Fisher Scientific) according to the manufacturer's instructions. More specifically, the transfected cells were grown on a coverslip (#0101050; Marienfeld) coated with poly D lysine (10 μg/ml; #P7280; Sigma Aldrich). Next, the cells were washed with a warm PBS solution and cooled with ice for 30 minutes to block endocytosis. […] The cells were then incubated with normal horse serum (#008-000-121; Jackson ImmunoResearch) at room temperature for 1 hour. […] After being washed with PBS, the cells were treated with a Cy3-conjugated donkey anti-mouse antibody (1:1,000; #715-165-150; Jackson ImmunoResearch), an Alexa488-conjugated donkey anti-mouse antibody (1:1,000; #715-545-150; Jackson ImmunoResearch), or a Cy3-conjugated donkey anti-rabbit antibody (1:1,000; #711-165-152; Jackson ImmunoResearch) at room temperature for 1 hour. The cells were mounted with a Vectashield fluorescent mounting medium containing DAPI (#H-1200; Vector Laboratories). The expression of heterologous odorant receptors was analyzed with a confocal laser scanning microscope LSM700 and ZEN software (Zeiss).
(§2) The Dual-Glo luciferase assay system (#E2940; Promega) was used for odorant receptor ligand screening. More specifically, Hana3A cells were streaked and spread on a white polystyrene 96-well plate (#353296; BD Biosciences) one day before transfection. pCRELuc (1 μg; #219076; Agilent Technologies), pRL-SV40 (1 μg; #E2231; Promega), RTP1S (1 μg), and OR (6 μg; or Mock) vectors were transfected for 24 hours in each plate. Each plate was analyzed using Lipofectamine 2000 (#11668-019; Thermo Fisher Scientific) according to the manufacturer's protocol. Transfected cells were stimulated in CD293 medium (#11913-019; Thermo Fisher Scientific) at 37° C. for 4 hours using diluted odorants at various concentrations. The activity of luciferase was normalized by the activity of Renilla luciferase. The amount of light emitted was measured using a SpectraMax L microplate reader (Molecular Devices).

Olfr110 = target: T1, Olfr110 (Mus musculus, UniProt A2RT31); assay: Luciferase assay in Hana3A cells, Olfr110; assay type: cell-based; conditions: for reactivity of Olfr110 (relative luciferase activity): Hana3A cells
T1 construct: Full-length odorant receptor genes from mouse and human genomic DNA were amplified using appropriate primers; Lucy (N); Flag (N); Rho (N); expressed in transfected cells; host or cells: Hana3A cells, co-transfected with RTP1S, pCRELuc and pRL-SV40
T1 sequence (A2RT31 1-317): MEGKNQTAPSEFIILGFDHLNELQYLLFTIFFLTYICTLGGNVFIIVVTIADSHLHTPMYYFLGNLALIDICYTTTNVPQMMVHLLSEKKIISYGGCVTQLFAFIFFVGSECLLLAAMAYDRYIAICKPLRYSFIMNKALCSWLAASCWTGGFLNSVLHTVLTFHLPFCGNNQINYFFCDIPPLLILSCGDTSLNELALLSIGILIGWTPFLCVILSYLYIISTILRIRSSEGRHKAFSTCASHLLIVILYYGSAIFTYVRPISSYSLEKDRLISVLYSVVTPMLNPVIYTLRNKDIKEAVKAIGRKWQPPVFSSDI
Protocol: as §1, §2

primary microglia [1] = assay: Active oxygen (ROS) production in primary microglia; assay type: cell-based, mouse; conditions: for ROS (active oxygen) generation induced by 2-PF after inhibitor pretreatment: then 2-PF
Protocol: Superoxide concentrations were calculated by measuring the degree of decrease in cytochrome c using a VersaMax microplate reader (Babior et al., 1973). Microglia were cultured on a 96-well plate at a concentration of 1.0×10^5 cells/well, and the microglia were activated by a 10 μM ATP solution containing 2-pentylfuran and cytochrome c, or a solution of Sup mixed with cytochalasin B (5 μM; #C66762; Sigma Aldrich). The resulting ROS concentration was measured by changes in light absorption at 550 nm at intervals of 1 minute for 25 minutes.
Active oxygen levels were measured using 2′,7′-dichlorodihydrofluorescein diacetate (DCF-DA, #D6883; Sigma Aldrich) using a method that had undergone minor modifications from the existing method. (Bae et al., 2001). More specifically, the primary microglia were treated with 10 μM DCF-DA in a 24-well plate (5.0×10^5 cells/well) […] at a temperature of 37° C. for 30 minutes. One plate was treated with 2-PF and one was not. Cells in each well were measured by a flow cytometer (FACS Accuri™ C6; BD Biosciences). MFI was measured in the same manner as described above.

primary microglia [2] = assay: Cytokine mRNA (qRT-PCR) and protein (ELISA) in microglia; assay type: cell-based, mouse; conditions: then 2-PF
Protocol: In the present example, microglia or astrocytes were primarily extracted from the cerebral cortex of E18.5 mouse embryos (Tamashiro et al., 2012) and then cultured as in Example 1. More specifically, the cortex of mouse embryos was collected and then stored in a cold supernatant (#14170-112; Thermo Fisher Scientific) and pretreated at 37° C. in a 0.25% trypsin solution (#15090-046; Thermo Fisher Scientific) for 20 minutes. Then, cells were plated in a minimal nutrient medium supplemented with 10% FBS (#SH30919.03; Hyclone), 2 mM L-glutamine (#25030-081; Thermo Fisher Scientific), 0.04% glucose (#G7021; Sigma Aldrich), and 1% penicillin/streptomycin (#15140-122; Thermo Fisher Scientific), and then filtered using a 40 μm strainer (#352340; Thermo Fisher Scientific). Microglia were plated at a density of 1.2×10^7 cells in a T75 flask coated with poly-D-lysine (#P7280; Sigma Aldrich). After 2 hours, the mixture was transferred to a Dulbecco's modified eagle medium (DMEM; #SH30243.01; Hyclone), and the medium was replaced every 3 days for 2 weeks. In order to separate the microglia from this mixed solution, first, the mixed solution was shaken at 37° C. at 150 rpm for 2 hours, then the mixed solution containing microglia was separately extracted from the top and transferred, and then the microglia were isolated by centrifugation at 1300 rpm at room temperature for 5 minutes. The isolated microglia were transferred to a culture medium. After the microglia were transferred, the microglia were completely removed by shaking the remaining mixed solution at 160 rpm for 1 day for culturing. Then, astrocytes were isolated by treatment with 0.25% trypsin and again cultured in a T75 flask for 4 days for collection. The purity of the collected microglia and astrocytes was evaluated by qRT-PCR analysis and by immunocytochemistry using Iba-1 and Gfap, which are a marker gene and a protein, respectively.
For the measurement of mRNA, RNA was isolated from red blood cells, microglia, astrocytes, Hana3A cells, or cerebral cortical cells using the MagNa Lyser (Roche Molecular Diagnostics) using TRIzol reagent (Invitrogen, Carlsbad, CA.) according to the manufacturer's protocol. Then, cDNA was generated through reverse transcription using the isolated mRNA (using PrimeScript™ 1st str and cDNA Synthesis kit—#6110; Takara Bio Inc). This process was quantitatively measured in real time through quantitative real-time-PCR (using LightCycler® 480 SYBR Green I Master). The measured values were calculated using the 2-ΔΔCt method.
The expression levels of Tnf, il6, and Il1b cytokines secreted from microglia were measured according to the manufacturer's protocol. More specifically, the expression levels were measured by ELISA 24 hours after treatment with 2-PF or a cell supernatant. […]

primary microglia [3] = assay: Western blot of phosphorylated signalling proteins in primary microglia; assay type: cell-based, mouse; conditions: inhibitor pre-culture, then 2-PF
Protocol: Cells and tissues were prepared using the T-PER® reagent (#78510; Thermo Fisher Scientific) with protease inhibitors (#04-693-116-001; Roche Molecular Diagnostics), DMSF (Sigma-Aldrich) and lysed using the MagNA Lyser (Roche Molecular Diagnostics). A total protein extract was quantified by the Bradford assay. The sample was dissolved in 7.5% SDS-PAGE or 4 to 20% gradient mini-PROTEIN TGX Precast Gels (#456-1064; Bio-Rad Laboratories), and then blotted onto nitrocellulose membranes (#10600002; GE Healthcare). The membrane was then blocked in 5% skimmed milk powder, TBST, 0.1% TWEEN® 20 (#P9416; Sigma-Aldrich) and Tris-buffered saline for 1 hour, and then incubated with primary antibodies at 4° C. overnight. The antibodies are as follows: Olfr110 (36 kDa; 1:1,000; #ab177327; Abcam), anti rhodopsin (39 kDa; 1:1,000; #MABN15; Millipore), CREB (43 kDa; 1:1,000; #9197; Cell Signaling Technology), phospho-CREB (43 kDa; 1:1,000; #9198; Cell Signaling Technology), ERK (44 kDa; 1:1,000; #sc094; Santa Cruz), phospho-ERK (42, 44 kDa; 1:1,000; #sc-7383; Santa Cruz), phospho-Akt (60 kDa; 1:500; sc-293125; Santa Cruz), phospho-JNK (46, 54 kDa; 1:500; sc-6254; Santa Cruz), phosphor-p38 (38 kDa; 1:1,000; sc-7973; Santa Cruz), or beta-Actin (45 kDa; 1:10,000; #4967; Cell Signaling Technology). Furthermore, an isotype-matched horseradish peroxidase-conjugated secondary antibody was used at 1:100,000 with anti-rabbit in TBST (#711-035-152; Jackson ImmunoResearch) and 1:40,000 with anti-mouse (#715-035-150; Jackson ImmunoResearch) at room temperature for 2 hours. As an immunoreactive protein band, SuperSignal™ West Pico Chemiluminescent Substrate (#34080; Thermo Fisher Scientific) was used.

[4] = tested on: Olfr920, Olfr1417, and Olfr99; conditions: Hana3A cells; MOCK also responded
Protocol: Next, Hana3A cells were transfected with RTP1S, and their location and presence on the cell membrane were confirmed as previously described (Behrens et al., 2009; Zhuang and Matsunami, 2008). Such transfection was performed using Lipofectamine 2000 (#11668-019; Thermo Fisher Scientific) according to the manufacturer's instructions. More specifically, the transfected cells were grown on a coverslip (#0101050; Marienfeld) coated with poly D lysine (10 μg/ml; #P7280; Sigma Aldrich). Next, the cells were washed with a warm PBS solution and cooled with ice for 30 minutes to block endocytosis. […] The cells were then incubated with normal horse serum (#008-000-121; Jackson ImmunoResearch) at room temperature for 1 hour. The resulting cells were incubated with mouse anti rhodopsin (anti-Rho; 1:1,000; #MABN15; Millipore) or rabbit anti Olfr110 (#ab177327; Abcam) at 4° C. overnight. […] The expression of heterologous odorant receptors was analyzed with a confocal laser scanning microscope LSM700 and ZEN software (Zeiss). […] Each plate was analyzed using Lipofectamine 2000 (#11668-019; Thermo Fisher Scientific) according to the manufacturer's protocol. […] The amount of light emitted was measured using a SpectraMax L microplate reader (Molecular Devices).

`Cc1ccoc1C` [2,3-dimethylfuran] was tested, and the “binding to Olfr111” value (Olfr111) was “do not bind” and the “binding to Olfr110” value (Olfr110) was “do not bind”.
In the case of `CCc1ccco1` [2-EF, 2-ethylfuran], the “binding to Olfr111” value (Olfr111) is reported as “do not bind”, the “binding to Olfr110” value (Olfr110) is reported as “do not bind” and the “mode of action at Olfr110” value (Olfr110) is reported as “competitive inhibitor (antagonist)”. For the same compound, the “active oxygen produced by Sup MOI of 100” value (primary microglia [1]; 2-EF pretreated at 0, 100, 300, 500 μM) was “decreased as the concentration of 2-EF increased” and the “active oxygen produced by Sup MOI 5 plus 500 μM 2-PF” value (primary microglia [1]; 2-ethylfuran 0, 100, 300, 500 μM simultaneously) was “the higher the concentration of 2-EF added, the lower the concentration of active oxygen produced”.
`CCCCc1ccco1` [2-butylfuran] was tested, and the “reactivity of Olfr111 (relative luciferase activity)” value (Olfr111) was “showed reactivity” and the “reactivity of Olfr110 (relative luciferase activity)” value (Olfr110) was “showed reactivity”.
`CCCCCCCc1ccco1` [2-heptylfuran] was tested, and the “binding to Olfr111” value (Olfr111) was “do not bind” and the “binding to Olfr110” value (Olfr110) was “do not bind”.
`CCCCCCc1ccco1` [2-hexylfuran] was tested, and the “binding to Olfr111” value (Olfr111) was “do not bind”, the “reactivity of Olfr111 (relative luciferase activity)” value (Olfr111) was “showed reactivity” and the “binding to Olfr110” value (Olfr110) was “do not bind”. For the same compound, the “reactivity of Olfr110 (relative luciferase activity)” value (Olfr110) was “showed reactivity”.
In the case of `Cc1ccco1` [2-methylfuran], the “binding to Olfr111” value (Olfr111) is reported as “do not bind” and the “binding to Olfr110” value (Olfr110) is reported as “do not bind”.
In the case of `CCCc1ccco1` [2-propylfuran], the “reactivity of Olfr111 (relative luciferase activity)” value (Olfr111) is reported as “showed reactivity” and the “reactivity of Olfr110 (relative luciferase activity)” value (Olfr110) is reported as “showed reactivity”.
In the case of `CC(C)(C)c1ccco1` [2-t-butylfuran], the “reactivity of Olfr111 (relative luciferase activity)” value (Olfr111) is reported as “showed reactivity” and the “reactivity of Olfr110 (relative luciferase activity)” value (Olfr110) is reported as “showed reactivity”.
In the case of `O=S(=O)(NCCNC/C=C/c1ccc(Br)cc1)c1cccc2cnccc12` [H-89], the “Tnf and Il6 cytokine levels induced by 2-PF after inhibitor pretreatment” value (primary microglia [2]) is reported as “great decrease”.
With `Nc1ncnc2c1ncn2C1CCCO1` (stereo not drawn) [SQ22536] the “CREB and ERK phosphorylation after inhibitor pre-culture and 2-PF” value (primary microglia [3]) was “greatly decreased” and the “Tnf and Il6 cytokine levels induced by 2-PF after inhibitor pretreatment” value (primary microglia [2]) was “great decrease”.
In the case of `COc1ccc2c(c1)CC[C@@H]1[C@@H]2CC[C@]2(C)[C@@H](NCCCCCCN3C(=O)C=CC3=O)CC[C@@H]12` [U73122], the “ROS (active oxygen) generation induced by 2-PF after inhibitor pretreatment” value (primary microglia [1]) is reported as “completely inhibited” and the “Tnf and Il6 cytokine levels induced by 2-PF after inhibitor pretreatment” value (primary microglia [2]) is reported as “relatively less decrease”.
With `CCO` [ethanol] the “reactivity of the remaining three receptors (luciferase)” value [4] was “non-specific reaction”.
With `O=C1OC2(c3ccccc31)c1ccc(O)c(O)c1Oc1c2ccc(O)c1O` [gallein] the “ROS (active oxygen) generation induced by 2-PF after inhibitor pretreatment” value (primary microglia [1]) was “similarly inhibited”.
`COc1cccc(-c2cc(=O)c3ccccc3o2)c1N` [pd98059] was tested, and the “CREB and ERK phosphorylation after inhibitor pre-culture and 2-PF” value (primary microglia [3]) was “greatly decreased” and the “Tnf and Il6 cytokine levels induced by 2-PF after inhibitor pretreatment” value (primary microglia [2]) was “relatively less decrease”.
